Experimental data: patent US20110288084A1, “[4-( 1-AMINO-ETHYL) - CYCLOHEXYL ] - METHYL - AMINES AS ANTIBACTERIALS” (ASTRAZENECA AB, priority 2008, published 2011)

The compounds below were run against Escherichia coli ParC/ParE tetramer protein (Escherichia coli, UniProt P0AFI2+P20083) (assay: E. coli ParC/ParE ATPase inhibition assay (malachite green phosphate detection)). Conditions: ATPase activity of ParE subunit of reconstituted ParC/ParE tetramer; 0.16 mM ATP; 24 hours at room temperature.
Format: biochemical
Description: The compounds of Formula (I) are of interest due to their antibacterial effects. The ability of the invention compounds disclosed herein to achieve an antibacterial effect may be evaluated with regard to their ability to inhibit the ParC enzyme of Escherichia coli using an assay based on the following protocol.
The assay utilizes the ATPase activity of the ParE subunit of reconstituted Escherichia coli ParC/ParE tetramer protein. Inhibition of ATPase activity may be monitored by reduced production of inorganic phosphate, a product of the ATPase reaction. Inorganic phosphate may be quantified using the ammonium molybdate/malachite green-based detection system. For determination of IC50 values, assays may be performed 384-well microtiter plates. Each well preferably contains a dilution range of the compound dissolved in DMSO. In addition, each well preferably contains: 20 mM Tris pH 8.0, 50 mM ammonium acetate, 0.16 mM ATP, 0.005% Brij-35, 8.0 mM magnesium chloride, 0.5 mM EDTA, 2.5% v/v glycerol, 5 mM dithiothreitol, 0.005 mg/mL sheared salmon sperm DNA, 0.5 nM E. coli ParC protein, 0.5 nM E. coli ParE protein. Final volume of assays is preferably 30 μL. Reactions may be incubated 24 hours at room temperature and then quenched with the addition of 45 μL malachite green reagent (Lanzetta, P. A., L. J. Alvarez, P. S. Reinach, and O. A. Candia (1979) Anal. Biochem. 100: 95-97) via a bulk reagent dispenser. Plates may be incubated 3-5 minutes at room temperature, and then absorbance at 650 nm may be measured using a Spectramax 384 plate reader.
When tested in an assay based on the one described above, the inhibitory activity of the following Examples was measured at the indicated IC50.

Sequence of Escherichia coli ParC/ParE tetramer protein (P20083 whole entry): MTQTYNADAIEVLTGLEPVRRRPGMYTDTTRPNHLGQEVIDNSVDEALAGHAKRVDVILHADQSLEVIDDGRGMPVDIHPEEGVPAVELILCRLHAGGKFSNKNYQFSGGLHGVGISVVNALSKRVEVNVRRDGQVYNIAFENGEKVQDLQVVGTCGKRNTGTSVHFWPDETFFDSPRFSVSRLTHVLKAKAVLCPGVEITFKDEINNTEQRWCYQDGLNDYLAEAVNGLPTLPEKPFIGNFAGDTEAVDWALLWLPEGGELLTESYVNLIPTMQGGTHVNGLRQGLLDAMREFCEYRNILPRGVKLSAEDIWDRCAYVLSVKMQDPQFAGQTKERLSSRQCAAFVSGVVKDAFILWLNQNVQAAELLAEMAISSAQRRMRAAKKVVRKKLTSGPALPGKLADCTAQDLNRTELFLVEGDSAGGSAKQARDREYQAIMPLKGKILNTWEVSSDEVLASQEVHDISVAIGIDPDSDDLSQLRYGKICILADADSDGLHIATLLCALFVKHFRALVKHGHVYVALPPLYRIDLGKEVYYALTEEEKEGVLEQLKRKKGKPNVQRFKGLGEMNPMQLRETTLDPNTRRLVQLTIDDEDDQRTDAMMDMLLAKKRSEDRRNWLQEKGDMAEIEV
Sequence of Escherichia coli ParC/ParE tetramer protein (P0AFI2 whole entry): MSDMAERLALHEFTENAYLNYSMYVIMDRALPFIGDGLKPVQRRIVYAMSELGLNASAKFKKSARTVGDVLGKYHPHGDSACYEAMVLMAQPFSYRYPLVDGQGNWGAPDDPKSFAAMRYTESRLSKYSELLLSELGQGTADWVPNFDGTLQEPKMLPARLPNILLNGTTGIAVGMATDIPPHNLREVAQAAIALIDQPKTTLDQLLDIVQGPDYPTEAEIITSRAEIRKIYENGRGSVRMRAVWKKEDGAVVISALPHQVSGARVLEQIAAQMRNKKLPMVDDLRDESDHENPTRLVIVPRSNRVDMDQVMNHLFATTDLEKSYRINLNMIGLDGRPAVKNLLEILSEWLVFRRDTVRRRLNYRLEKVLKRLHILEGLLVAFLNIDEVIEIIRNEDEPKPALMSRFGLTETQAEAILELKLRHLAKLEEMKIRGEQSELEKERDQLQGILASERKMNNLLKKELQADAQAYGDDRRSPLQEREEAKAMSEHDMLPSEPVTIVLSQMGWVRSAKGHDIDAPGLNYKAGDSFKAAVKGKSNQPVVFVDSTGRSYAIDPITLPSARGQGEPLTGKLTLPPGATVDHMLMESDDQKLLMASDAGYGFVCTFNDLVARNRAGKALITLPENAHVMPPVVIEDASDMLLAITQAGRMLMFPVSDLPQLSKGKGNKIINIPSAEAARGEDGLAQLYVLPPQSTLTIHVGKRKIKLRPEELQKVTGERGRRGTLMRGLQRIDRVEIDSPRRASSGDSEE

Structure (SMILES)	IC50 [nM]
COc1cnc2ccc(=O)n(CC(N)C3CCC(NCc4ccc5c(n4)NC(=O)CO5)CC3)c2c1 (racemic) [Example 1, Trans-6-((4-(1-amino-2-(7-methoxy-2-oxo-1,5-naphthyridin-1(2H)-yl)ethyl)cyclohexylamino)methyl)-2H-pyrido[3,2-b][1,4]oxazin-3(4H)-one]	20
N#Cc1ccc2ccc(=O)n(CC(N)C3CCC(NCc4ccc5c(n4)NC(=O)CO5)CC3)c2c1 (racemic) [Example 4, Trans-1-(2-amino-2-(4-((3-oxo-3,4-dihydro-2H-pyrido[3,2-b][1,4]oxazin-6-yl)methylamino)cyclohexyl)ethyl)-2-oxo-1,2-dihydroquinoline-7-carbonitrile]	9
N#Cc1ccc2ccc(=O)n(CC(N)C3CCC(NCc4ccc5c(n4)NC(=O)CS5)CC3)c2c1 (racemic) [Example 7, Trans-1-(2-amino-2-(4-((3-oxo-3,4-dihydro-2H-pyrido[3,2-b][1,4]thiazin-6-yl)methylamino)cyclohexyl)ethyl)-2-oxo-1,2-dihydroquinoline-7-carbonitrile]	12
COc1cnc2ccc(=O)n(CC(N)C3CCC(NCc4ncc5c(n4)NC(=O)CO5)CC3)c2c1 (racemic) [Example 8, Trans-2-((4-(1-amino-2-(7-methoxy-2-oxo-1,5-naphthyridin-1(2H)-yl)ethyl)cyclohexylamino)methyl)-6H-pyrimido[5,4-b][1,4]oxazin-7(8H)-one]	17
NC(Cn1c(=O)cnc2ccc(F)cc21)[C@H]1CC[C@H](NCc2ccc3c(n2)NC(=O)CO3)CC1 (single isomer, unassigned) [Example 5, Trans-6-((4-(1-amino-2-(7-fluoro-2-oxoquinoxalin-1(2H)-yl)ethyl)cyclohexylamino)methyl-2H-pyrido[3,2-b][1,4]oxazin-3(4H)-one, (+) enantiomer]	24
NC(Cn1c(=O)cnc2ccc(F)cc21)C1CCC(NCc2ncc3c(n2)NC(=O)CO3)CC1 (single isomer, unassigned) [Example 6, Trans-2-((4-(1-amino-2-(7-fluoro-2-oxoquinoxalin-1(2H)-yl)ethyl)cyclohexylamino)methyl-6H-pyrimido[5,4-b][1,4]oxazin-7(8H)-one, (+) enantiomer]	15
COc1cnc2ccc(=O)n(CC(N)[C@H]3CC[C@H](NCc4ccc5c(n4)NC(=O)CO5)CC3)c2c1 (single isomer, unassigned; enantiomer a) [Example 1(a), Trans-6-((4-(1-amino-2-(7-methoxy-2-oxo-1,5-naphthyridin-1(2H)-yl)ethyl)cyclohexylamino)methyl)-2H-pyrido[3,2-b][1,4]oxazin-3(4H)-one, enantiomer A]	2
COc1ccc2ncc(=O)n(CC(N)[C@H]3CC[C@H](NCc4ccc5c(n4)NC(=O)CO5)CC3)c2c1 (single isomer, unassigned; enantiomer a) [Example 2(a), Trans-6-((4-(1-amino-2-(7-methoxy-2-oxoquinoxalin-1(2H)-yl)ethyl)cyclohexylamino)methyl)-2H-pyrido[3,2-b][1,4]oxazin-3(4H)-one, enantiomer A]	16
COc1ccc2ncc(=O)n(CC(N)[C@H]3CC[C@H](NCc4ncc5c(n4)NC(=O)CO5)CC3)c2c1 (single isomer, unassigned; enantiomer a) [Example 3(a), Trans-2-((4-(1-amino-2-(7-methoxy-2-oxoquinoxalin-1(2H)-yl)ethyl)cyclohexylamino)methyl)-6H-pyrimido[5,4-b][1,4]oxazin-7(8H)-one, enantiomer A]	16
N#Cc1ccc2ccc(=O)n(CC(N)[C@H]3CC[C@H](NCc4ccc5c(n4)NC(=O)CO5)CC3)c2c1 (single isomer, unassigned; enantiomer a) [Example 4(a), Trans-1-(2-amino-2-(4-((3-oxo-3,4-dihydro-2H-pyrido[3,2-b][1,4]oxazin-6-yl)methylamino)cyclohexyl)ethyl)-2-oxo-1,2-dihydroquinoline-7-carbonitrile, enantiomer A]	32
NC(Cn1c(=O)ccc2ncc(Sc3ccccc3)cc21)C1CCC(NCc2ccc3c(n2)NC(=O)CO3)CC1 (single isomer, unassigned; enantiomer a) [Example 9, Trans-6-((4-(1-amino-2-(2-oxo-7-(phenylthio)-1,5-naphthyridin-1(2H)-yl)ethyl)cyclohexylamino)methyl)-2H-pyrido[3,2-b][1,4]oxazin-3(4H)-one, enantiomer A]	6
Cc1cc(=O)n(CC(N)C2CCC(NCc3ccc4c(n3)NC(=O)CO4)CC2)c2cc(F)ccc12 (single isomer, unassigned; enantiomer a) [Example 10, Trans-6-((4-(1-amino-2-(7-fluoro-4-methyl-2-oxoquinolin-1(2H)-yl)ethyl)cyclohexylamino)methyl)-2H-pyrido[3,2-b][1,4]oxazin-3(4H)-one, enantiomer A]	9
COc1cnc2ccc(=O)n(CC(N)[C@H]3CC[C@H](NCc4ccc5c(n4)NC(=O)CO5)CC3)c2c1 (single isomer, unassigned; enantiomer b) [Example 1(b), Trans-6-((4-(1-amino-2-(7-methoxy-2-oxo-1,5-naphthyridin-1(2H)-yl)ethyl)cyclohexylamino)methyl)-2H-pyrido[3,2-b][1,4]oxazin-3(4H)-one, enantiomer B]	33
COc1ccc2ncc(=O)n(CC(N)[C@H]3CC[C@H](NCc4ccc5c(n4)NC(=O)CO5)CC3)c2c1 (single isomer, unassigned; enantiomer b) [Example 2(b), Trans-6-((4-(1-amino-2-(7-methoxy-2-oxoquinoxalin-1(2H)-yl)ethyl)cyclohexylamino)methyl)-2H-pyrido[3,2-b][1,4]oxazin-3(4H)-one, enantiomer B]	4
COc1ccc2ncc(=O)n(CC(N)[C@H]3CC[C@H](NCc4ncc5c(n4)NC(=O)CO5)CC3)c2c1 (single isomer, unassigned; enantiomer b) [Example 3(b), Trans-2-((4-(1-amino-2-(7-methoxy-2-oxoquinoxalin-1(2H)-yl)ethyl)cyclohexylamino)methyl)-6H-pyrimido[5,4-b][1,4]oxazin-7(8H)-one, enantiomer B]	3
N#Cc1ccc2ccc(=O)n(CC(N)[C@H]3CC[C@H](NCc4ccc5c(n4)NC(=O)CO5)CC3)c2c1 (single isomer, unassigned; enantiomer b) [Example 4(b), Trans-1-(2-amino-2-(4-((3-oxo-3,4-dihydro-2H-pyrido[3,2-b][1,4]oxazin-6-yl)methylamino)cyclohexyl)ethyl)-2-oxo-1,2-dihydroquinoline-7-carbonitrile, enantiomer B]	4
N#Cc1ccc2ccc(=O)n(CC(N)[C@H]3CC[C@H](NCc4ccc5c(n4)NC(=O)CS5)CC3)c2c1 (single isomer, unassigned; enantiomer b) [Example 7(b), Trans-1-(2-amino-2-(4-((3-oxo-3,4-dihydro-2H-pyrido[3,2-b][1,4]thiazin-6-yl)methylamino)cyclohexyl)ethyl)-2-oxo-1,2-dihydroquinoline-7-carbonitrile, enantiomer B]	2
